Converted amounts (≈) assume the structure as drawn. The source made the active and inactive calls.

Assay [1] concerns Staphylococcus aureus. In words: Antibacterial activity against erythromycin-susceptible Staphylococcus aureus ATCC25923 by broth microdilution method. Type of assay: functional. For orientation: Broth dilution looks for growth in wells or tubes with falling amounts of substance.
Assay [2] is described as follows: Ratio of MBC for bactericidal activity against methicillin-resistant Staphylococcus aureus ATCC43300 to MIC for antibacterial activity against methicillin-resistant Staphylococcus aureus ATCC43300 by broth microdilution method. Format: functional.
In another assay the test system is Enterococcus faecium. Description: Antibacterial activity against clinical isolate erythromycin-resistant Enterococcus faecium by broth microdilution method. Format: functional.
Assay [3] deals with Staphylococcus aureus. In words: Antibacterial activity against methicillin-resistant Staphylococcus aureus ATCC43300 by broth microdilution method. Format: functional.
The test system of a further assay is Bacillus subtilis. In words: Antibacterial activity against penicillin-susceptible Bacillus subtilis ATCC9372 by broth microdilution method. Format: functional.
For another assay, the system named is Enterococcus faecalis. Description: Antibacterial activity against vancomycin-susceptible Enterococcus faecalis ATCC29212 by broth microdilution method. Format: functional.
Assay [4] concerns Staphylococcus aureus. Description: Antibacterial activity against penicillin-resistant Staphylococcus aureus by broth microdilution method. Type of assay: functional.
The subject of the next assay is Klebsiella pneumoniae. Description: Antibacterial activity against Klebsiella pneumoniae ATCC10031 by broth microdilution method. Format: functional.
Assay [5] has as its system Staphylococcus aureus. In words: Bactericidal activity against methicillin-resistant Staphylococcus aureus ATCC43300. Type of assay: functional.
The test system of assay [6] is Staphylococcus aureus. Description: Bactericidal activity against methicillin-resistant Staphylococcus aureus ATCC43300 at 4 times of MIC measured up to 24 hrs. Type of assay: functional, organism-based. The note with it: time hrs <=24.
The test system of assay [7] is Staphylococcus aureus. In words: Bactericidal activity against methicillin-resistant Staphylococcus aureus ATCC43300 at 2 times of MIC measured up to 24 hrs. Format: functional, organism-based. To be noted: time hrs <=24.
The subject of assay [8] is Staphylococcus aureus. Description: Antibacterial activity against methicillin-resistant Staphylococcus aureus ATCC43300 at 1 times of MIC measured up to 9 hrs by broth microdilution method. Format: functional, organism-based. To be noted: time hrs <=9.
Assay [9] relates to Staphylococcus aureus. Description: Antibacterial activity against methicillin-resistant Staphylococcus aureus ATCC43300 at 0.5 times of MIC measured up to 24 hrs by broth microdilution method. Type of assay: functional, organism-based. To be noted: time hrs <=24.

Broadly, the MIC is the lowest concentration found to suppress growth. Read a low MIC as a more susceptible organism. In general, MBC refers to the smallest concentration meeting the test's criterion for killing. The low end stands for more potent killing, the high end for less potent killing. As to `CCCCc1ccc(-c2cn(CC(=O)NNC(=O)O[C@H]3[C@H](C)[C@@H](O[C@@H]4O[C@H](C)C[C@H](N(C)C)[C@H]4O)[C@](C)(O)C[C@@H](C)CN(C)[C@H](C)[C@H]4OC(=O)O[C@]4(C)[C@@H](CC)OC(=O)[C@@H]3C)nn2)cc1`, the MIC against Staphylococcus aureus [1] was determined as 8 µg/mL (≈ 8.73 µM); with Enterococcus faecium it was 16 µg/mL (≈ 17.5 µM); against Staphylococcus aureus [3], 32 µg/mL (≈ 34.9 µM); with Bacillus subtilis, 8 µg/mL (≈ 8.73 µM); with Enterococcus faecalis, 4 µg/mL (≈ 4.37 µM); in the assay with Staphylococcus aureus [4], 32 µg/mL (≈ 34.9 µM). The same molecule showed an MIC against Klebsiella pneumoniae of 16 µg/mL (≈ 17.5 µM). The Ratio in assay [2] is reported as above 8. In the assay on Staphylococcus aureus [5], this molecule had an MBC above 256 µg/mL.

In the case of `CC[C@H]1OC(=O)[C@H](C)[C@@H](OC(=O)NNC(=O)Cn2cc(-c3ccc(C(C)(C)C)cc3)nn2)[C@H](C)[C@@H](O[C@@H]2O[C@H](C)C[C@H](N(C)C)[C@H]2O)[C@](C)(O)C[C@@H](C)CN(C)[C@H](C)[C@H]2OC(=O)O[C@@]21C`, the MIC is 16 µg/mL (≈ 17.5 µM) in the assay with Staphylococcus aureus [1]; 16 µg/mL (≈ 17.5 µM) with Enterococcus faecium; 32 µg/mL (≈ 34.9 µM) with Staphylococcus aureus [3]; 16 µg/mL (≈ 17.5 µM) with Bacillus subtilis; 4 µg/mL (≈ 4.37 µM) with Enterococcus faecalis; 32 µg/mL (≈ 34.9 µM) against Staphylococcus aureus [4]. It took 16 µg/mL (≈ 17.5 µM) to inhibit growth in the assay on Klebsiella pneumoniae (MIC). In addition, in assay [2], the Ratio is above 8. This molecule displayed an MBC in the assay on Staphylococcus aureus [5] above 256 µg/mL.

With `CC[C@H]1OC(=O)[C@H](C)[C@@H](OC(=O)NNC(=O)Cn2cc(-c3ccc(-c4ccccc4)cc3)nn2)[C@H](C)[C@@H](O[C@@H]2O[C@H](C)C[C@H](N(C)C)[C@H]2O)[C@](C)(O)C[C@@H](C)CN(C)[C@H](C)[C@H]2OC(=O)O[C@@]21C`, the MIC was 16 µg/mL (≈ 17.1 µM) in the assay on Staphylococcus aureus [1]; 16 µg/mL (≈ 17.1 µM) in the assay on Enterococcus faecium; 32 µg/mL (≈ 34.2 µM) with Staphylococcus aureus [3]; 16 µg/mL (≈ 17.1 µM) against Bacillus subtilis; 8 µg/mL (≈ 8.55 µM) against Enterococcus faecalis; 32 µg/mL (≈ 34.2 µM) against Staphylococcus aureus [4]. Besides, the lowest concentration to inhibit growth against Klebsiella pneumoniae (MIC) was 32 µg/mL (≈ 34.2 µM). The Ratio in assay [2] is reported as above 8. In the assay on Staphylococcus aureus [5], this molecule registered an MBC above 256 µg/mL.

For the molecule `CCCCCc1ccc(-c2cn(CC(=O)NNC(=O)O[C@H]3[C@H](C)[C@@H](O[C@@H]4O[C@H](C)C[C@H](N(C)C)[C@H]4O)[C@](C)(O)C[C@@H](C)CN(C)[C@H](C)[C@H]4OC(=O)O[C@]4(C)[C@@H](CC)OC(=O)[C@@H]3C)nn2)cc1`, the MIC against Staphylococcus aureus [1] worked out at 8 µg/mL (≈ 8.6 µM); in the assay on Enterococcus faecium, 8 µg/mL (≈ 8.6 µM); in the assay with Staphylococcus aureus [3], 16 µg/mL (≈ 17.2 µM); in the assay on Bacillus subtilis, 8 µg/mL (≈ 8.6 µM); in the assay on Enterococcus faecalis, 4 µg/mL (≈ 4.3 µM); in the assay with Staphylococcus aureus [4], 16 µg/mL (≈ 17.2 µM). The molecule further came in with an MIC in the assay with Klebsiella pneumoniae of 32 µg/mL (≈ 34.4 µM). Also, the inhibition entry in the assay on Staphylococcus aureus [6], with Staphylococcus aureus [7] and in the assay with Staphylococcus aureus [8] was “Active” throughout. In [2], the Ratio turned out to be 8. In addition, in the assay with Staphylococcus aureus [9], the inhibition entry was “inactive”. Besides, the MBC against Staphylococcus aureus [5] worked out at 126 µg/mL (≈ 135 µM).

On to `CC[C@H]1OC(=O)[C@H](C)[C@@H](OC(=O)NNC(=O)Cn2cc(-c3cccc([N+](=O)[O-])c3)nn2)[C@H](C)[C@@H](O[C@@H]2O[C@H](C)C[C@H](N(C)C)[C@H]2O)[C@](C)(O)C[C@@H](C)CN(C)[C@H](C)[C@H]2OC(=O)O[C@@]21C`, for which the MIC in the assay with Staphylococcus aureus [1] was 64 µg/mL (≈ 70.7 µM); in the assay on Enterococcus faecium, 128 µg/mL (≈ 141 µM); against Staphylococcus aureus [3], 256 µg/mL (≈ 283 µM); in the assay with Bacillus subtilis it was 128 µg/mL (≈ 141 µM); in the assay on Enterococcus faecalis it was 32 µg/mL (≈ 35.4 µM); in the assay with Staphylococcus aureus [4] it was 256 µg/mL (≈ 283 µM). The MIC against Klebsiella pneumoniae is 32 µg/mL (≈ 35.4 µM).

These data come from ChEMBL document CHEMBL4823305, “Design, synthesis and antibacterial evaluation of novel 3-O-substituted 15-membered azalides possessing 1,2,3-triazole side chains” (2021).
